Values quoted from earlier work in patent US20260108502A1, “ORAL DELIVERY FORMULATIONS USING SELF EMULSIFYING GRANULES AND LIPID BASED GRANULES” (BOARD OF REGENTS, THE UNIVERSITY OF TEXAS SYSTEM, priority 2024, published 2026).

Compound: CC(C)c1nc(CN(C)C(=O)N[C@H](C(=O)N[C@@H](Cc2ccccc2)C[C@H](O)[C@H](Cc2ccccc2)NC(=O)OCc2cncs2)C(C)C)cs1 [Ritonavir]
- strongest basic pKa: 2.84
